Target: Cyclin-dependent kinase 4 (Homo sapiens, UniProt P11802)
Assay: Inhibition of CDK4

Sequence of Cyclin-dependent kinase 4 (P11802 whole entry): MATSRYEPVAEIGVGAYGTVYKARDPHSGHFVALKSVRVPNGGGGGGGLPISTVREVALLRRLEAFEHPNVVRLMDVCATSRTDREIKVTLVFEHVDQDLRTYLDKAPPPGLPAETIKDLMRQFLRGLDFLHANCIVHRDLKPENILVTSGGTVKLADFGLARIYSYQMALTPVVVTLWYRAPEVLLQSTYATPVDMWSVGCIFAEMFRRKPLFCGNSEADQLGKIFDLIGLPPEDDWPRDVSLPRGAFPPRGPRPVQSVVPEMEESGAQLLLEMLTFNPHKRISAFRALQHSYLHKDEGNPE

IC50: 0.047 µM
Compound: Cc1ccc(Cl)c(N(CC#N)c2cc(Nc3ccc(OC[C@@H](O)CN(C)C)cc3)ncn2)c1
